Results from US20250353891A1 (MEDIMMUNE LIMITED, priority 2022, published 2025).
Starred links: 1 amine or outer side, 2 acyl side, 3 side chain; linkers in the order of their positions; H or OH if unused. Non-standard residues stand in square brackets, D forms with d. Residues, ends and D or L forms follow the SMILES beside them. Groups on a side chain read outwards from the residue. *: point of attachment. Heptadecanoyl = CCCCCCCCCCCCCCCCC(=O)*; γGlu = O=C(O)[C@H](CCC(=O)[*:2])N[*:1]; Stearoyl = CCCCCCCCCCCCCCCCCC(=O)*; Palmitoyl = CCCCCCCCCCCCCCCC(=O)*; αMeF = C[C@](N)(Cc1ccccc1)C(=O)O; PEG2 = NCCOCCOCCC(=O)O; Aib = CC(C)(N)C(=O)O

Assays:
[1] = biological target: human GLP-1 receptor (hGLP-1R) (Homo sapiens, UniProt P43220); test: cAMP production (HTRF) in CHO cells expressing hGLP-1R; type: cell-based; parameters: expressed in transfected cells; conditions: for EC50: Table 6, peptides modified at position 17, cAMP in CHO hGLP-1R cells, geometric mean, read-out: hGLP-1R EC50; for % Relative Potency Ratio: Table 6, % GLP-1R activity relative to GLP-1 / % GlucR activity relative to glucagon
In short: (§1)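 Read-out: HTRF cAMP (anti-cAMP cryptate donor, cAMP-d2 acceptor in conjugate/lysis buffer), converted to % Delta F and fitted by 4-parameter logistic for EC50. Cell densities were 1×10^5 cells/mL (hGLP-1R) or 2×10^5 cells/mL (hGCGR). Stimulation lasted 30 min at room temperature.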

[2] = biological target: human glucagon receptor (hGCGR) (Homo sapiens, UniProt P47871); test: cAMP production (HTRF) in CHO cells expressing hGCGR; type: cell-based; parameters: expressed in transfected cells; conditions: Table 6, peptides modified at position 17; cAMP in CHO hGCGR cells; geometric mean; read-out: hGluc-R EC50
In short: as §1

Chain of human GLP-1 receptor (hGLP-1R) (P43220 24-463): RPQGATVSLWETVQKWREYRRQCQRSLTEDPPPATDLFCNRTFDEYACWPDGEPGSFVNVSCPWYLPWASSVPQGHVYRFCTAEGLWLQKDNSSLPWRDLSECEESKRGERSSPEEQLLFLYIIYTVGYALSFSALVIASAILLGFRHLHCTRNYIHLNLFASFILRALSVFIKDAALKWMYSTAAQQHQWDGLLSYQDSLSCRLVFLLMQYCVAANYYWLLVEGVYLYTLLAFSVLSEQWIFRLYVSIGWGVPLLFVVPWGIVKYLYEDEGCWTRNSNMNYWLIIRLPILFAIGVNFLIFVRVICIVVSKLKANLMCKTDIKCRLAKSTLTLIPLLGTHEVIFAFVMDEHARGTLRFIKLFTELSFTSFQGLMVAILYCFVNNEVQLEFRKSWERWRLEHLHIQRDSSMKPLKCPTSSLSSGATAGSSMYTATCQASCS
Chain of human glucagon receptor (hGCGR) (P47871 26-477): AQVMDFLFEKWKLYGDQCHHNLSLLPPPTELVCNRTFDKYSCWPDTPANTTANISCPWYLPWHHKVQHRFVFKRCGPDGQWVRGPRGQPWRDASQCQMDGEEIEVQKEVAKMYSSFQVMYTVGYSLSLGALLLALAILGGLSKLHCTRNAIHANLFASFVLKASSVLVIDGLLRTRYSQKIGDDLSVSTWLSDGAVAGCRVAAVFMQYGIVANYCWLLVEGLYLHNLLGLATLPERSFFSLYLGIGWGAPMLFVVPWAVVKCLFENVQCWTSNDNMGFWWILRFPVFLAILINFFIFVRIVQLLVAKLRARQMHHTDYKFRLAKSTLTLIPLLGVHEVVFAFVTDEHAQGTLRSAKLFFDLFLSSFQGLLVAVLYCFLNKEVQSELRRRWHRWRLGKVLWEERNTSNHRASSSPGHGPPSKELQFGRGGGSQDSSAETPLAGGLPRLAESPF

With `CCCCCCCCCCCCCCCCCC(=O)N[C@@H](CCC(=O)N[C@@H](CCC(=O)NCCOCCOCCC(=O)NCCOCCOCCC(=O)NCCCC[C@H](NC(=O)[C@H](CO)NC(=O)[C@H](CC(=O)O)NC(=O)[C@H](CC(C)C)NC(=O)[C@](C)(Cc1ccccc1)NC(=O)[C@H](CCCCN)NC(=O)[C@H](CO)NC(=O)[C@@H](NC(=O)[C@H](CC(=O)O)NC(=O)[C@H](CO)NC(=O)[C@@H](NC(=O)[C@](C)(Cc1ccccc1)NC(=O)[C@H](CO)NC(=O)CNC(=O)[C@H](CCC(N)=O)NC(=O)[C@H](CO)NC(=O)[C@@H](N)Cc1c[nH]cn1)[C@@H](C)O)C(C)C)C(=O)N[C@@H](C)C(=O)N[C@@H](C)C(=O)N[C@@H](CCC(N)=O)C(=O)N[C@@H](CC(=O)O)C(=O)N[C@@](C)(Cc1ccccc1)C(=O)N[C@H](C(=O)N[C@@H](CCC(N)=O)C(=O)NC(C)(C)C(=O)N[C@H](C(=O)N[C@H](C(=O)N[C@@H](CC(N)=O)C(=O)N[C@H](C(N)=O)[C@@H](C)O)[C@@H](C)CC)[C@@H](C)CC)C(C)C)C(=O)O)C(=O)O` [Peptide 83] (H-HSQGS[αMeF]TSDVSK[αMeF]LDSK([PEG2-PEG2-γGlu-γGlu-Stearoyl])AAQD[αMeF]VQ[Aib]IINT-NH2) the EC50 [1] was 1.04 pM, the “% Relative Potency Ratio” value [1] was 29.6 and the EC50 [2] was 15.6 pM.

In the case of `CCCCCCCCCCCCCCCCCC(=O)N[C@@H](CCC(=O)N[C@@H](CCC(=O)NCCOCCOCCC(=O)NCCOCCOCCC(=O)NCCCC[C@H](NC(=O)[C@H](CO)NC(=O)[C@H](CC(=O)O)NC(=O)[C@H](CC(C)C)NC(=O)[C@](C)(Cc1ccccc1)NC(=O)[C@H](CCCCN)NC(=O)[C@H](CO)NC(=O)[C@@H](NC(=O)[C@H](CC(=O)O)NC(=O)[C@H](CO)NC(=O)[C@@H](NC(=O)[C@](C)(Cc1ccccc1)NC(=O)[C@H](CO)NC(=O)CNC(=O)[C@H](CCC(N)=O)NC(=O)[C@H](CO)NC(=O)[C@@H](N)Cc1c[nH]cn1)[C@@H](C)O)C(C)C)C(=O)N[C@@H](C)C(=O)N[C@@H](C)C(=O)N[C@@H](CCC(N)=O)C(=O)N[C@@H](CC(=O)O)C(=O)N[C@@](C)(Cc1ccccc1)C(=O)N[C@H](C(=O)N[C@@H](CCC(N)=O)C(=O)NC(C)(C)C(=O)N[C@@H](CC(C)C)C(=O)N[C@@H](CC(C)C)C(=O)N[C@@H](CC(N)=O)C(=O)N[C@H](C(N)=O)[C@@H](C)O)C(C)C)C(=O)O)C(=O)O` [Peptide 84] (H-HSQGS[αMeF]TSDVSK[αMeF]LDSK([PEG2-PEG2-γGlu-γGlu-Stearoyl])AAQD[αMeF]VQ[Aib]LLNT-NH2), the EC50 [1] is reported as 2.8 pM, the “% Relative Potency Ratio” value [1] is reported as 31.7 and the EC50 [2] is reported as 44.9 pM.

`CCCCCCCCCCCCCCCCCC(=O)N[C@@H](CCC(=O)N[C@@H](CCC(=O)NCCOCCOCCC(=O)NCCOCCOCCC(=O)NCCCC[C@H](NC(=O)[C@H](CO)NC(=O)[C@H](CC(=O)O)NC(=O)[C@H](CC(C)C)NC(=O)[C@](C)(Cc1ccccc1)NC(=O)[C@H](CCCCN)NC(=O)[C@H](CO)NC(=O)[C@@H](NC(=O)[C@H](CC(=O)O)NC(=O)[C@H](CO)NC(=O)[C@@H](NC(=O)[C@](C)(Cc1ccccc1)NC(=O)[C@H](CO)NC(=O)CNC(=O)[C@H](CCC(N)=O)NC(=O)[C@H](CO)NC(=O)[C@@H](N)Cc1c[nH]cn1)[C@@H](C)O)C(C)C)C(=O)N[C@@H](C)C(=O)N[C@@H](C)C(=O)N[C@@H](CCC(N)=O)C(=O)N[C@@H](CC(=O)O)C(=O)N[C@@](C)(Cc1ccccc1)C(=O)N[C@H](C(=O)N[C@@H](CCC(N)=O)C(=O)NC(C)(C)C(=O)N[C@H](C(=O)N[C@H](C(=O)N[C@@H](CCC(=O)O)C(=O)NCC(=O)NCC(N)=O)C(C)C)C(C)C)C(C)C)C(=O)O)C(=O)O` [Peptide 85] (H-HSQGS[αMeF]TSDVSK[αMeF]LDSK([PEG2-PEG2-γGlu-γGlu-Stearoyl])AAQD[αMeF]VQ[Aib]VVEGG-NH2; N-terminus assumed) was tested, and the EC50 [1] was 1.04 pM, the “% Relative Potency Ratio” value [1] was 90.9 and the EC50 [2] was 47.7 pM.

In the case of `CCCCCCCCCCCCCCCCCC(=O)N[C@@H](CCC(=O)N[C@@H](CCC(=O)NCCOCCOCCC(=O)NCCOCCOCCC(=O)NCCCC[C@H](NC(=O)[C@H](CO)NC(=O)[C@H](CC(=O)O)NC(=O)[C@H](CC(C)C)NC(=O)[C@](C)(Cc1ccccc1)NC(=O)[C@H](CCCCN)NC(=O)[C@H](CO)NC(=O)[C@@H](NC(=O)[C@H](CC(=O)O)NC(=O)[C@H](CO)NC(=O)[C@@H](NC(=O)[C@](C)(Cc1ccccc1)NC(=O)[C@H](CO)NC(=O)CNC(=O)[C@H](CCC(N)=O)NC(=O)[C@H](CO)NC(=O)[C@@H](N)Cc1c[nH]cn1)[C@@H](C)O)C(C)C)C(=O)N[C@@H](C)C(=O)N[C@@H](C)C(=O)N[C@@H](CCC(N)=O)C(=O)N[C@@H](CC(=O)O)C(=O)N[C@@](C)(Cc1ccccc1)C(=O)N[C@H](C(=O)N[C@@H](CCC(N)=O)C(=O)NC(C)(C)C(=O)N[C@H](C(=O)N[C@@H](C)C(=O)N[C@@H](CC(N)=O)C(N)=O)[C@@H](C)CC)C(C)C)C(=O)O)C(=O)O` [Peptide 86] (H-HSQGS[αMeF]TSDVSK[αMeF]LDSK([PEG2-PEG2-γGlu-γGlu-Stearoyl])AAQD[αMeF]VQ[Aib]IAN-NH2; N-terminus assumed), the “% Relative Potency Ratio” value [1] is reported as 16.6 and the EC50 [2] is reported as 6.46 pM.

In the case of `CCCCCCCCCCCCCCCC(=O)N[C@@H](CCC(=O)N[C@@H](CCC(=O)NCCOCCOCCC(=O)NCCOCCOCCC(=O)NCCCC[C@H](NC(=O)[C@H](CO)NC(=O)[C@H](CC(=O)O)NC(=O)[C@H](CC(C)C)NC(=O)[C@](C)(Cc1ccccc1)NC(=O)[C@H](CCCCN)NC(=O)[C@H](CO)NC(=O)[C@@H](NC(=O)[C@H](CC(=O)O)NC(=O)[C@H](CO)NC(=O)[C@@H](NC(=O)[C@](C)(Cc1ccccc1)NC(=O)[C@H](CO)NC(=O)CNC(=O)[C@H](CCC(N)=O)NC(=O)[C@H](CO)NC(=O)[C@@H](N)Cc1c[nH]cn1)[C@@H](C)O)C(C)C)C(=O)N[C@@H](C)C(=O)N[C@@H](C)C(=O)N[C@@H](CCC(N)=O)C(=O)N[C@@H](CC(=O)O)C(=O)N[C@@](C)(Cc1ccccc1)C(=O)N[C@H](C(=O)N[C@@H](CCC(N)=O)C(=O)NC(C)(C)C(=O)N[C@H](C(=O)N[C@@H](C)C(=O)N[C@@H](CC(N)=O)C(N)=O)[C@@H](C)CC)C(C)C)C(=O)O)C(=O)O` [Peptide 87] (H-HSQGS[αMeF]TSDVSK[αMeF]LDSK([PEG2-PEG2-γGlu-γGlu-Palmitoyl])AAQD[αMeF]VQ[Aib]IAN-NH2; N-terminus assumed), the EC50 [1] is reported as 1.29 pM, the “% Relative Potency Ratio” value [1] is reported as 13.0 and the EC50 [2] is reported as 8.46 pM.

With `CCCCCCCCCCCCCCCCC(=O)N[C@@H](CCC(=O)N[C@@H](CCC(=O)NCCOCCOCCC(=O)NCCOCCOCCC(=O)NCCCC[C@H](NC(=O)[C@H](CO)NC(=O)[C@H](CC(=O)O)NC(=O)[C@H](CC(C)C)NC(=O)[C@](C)(Cc1ccccc1)NC(=O)[C@H](CCCCN)NC(=O)[C@H](CO)NC(=O)[C@@H](NC(=O)[C@H](CC(=O)O)NC(=O)[C@H](CO)NC(=O)[C@@H](NC(=O)[C@](C)(Cc1ccccc1)NC(=O)[C@H](CO)NC(=O)CNC(=O)[C@H](CCC(N)=O)NC(=O)[C@H](CO)NC(=O)[C@@H](N)Cc1c[nH]cn1)[C@@H](C)O)C(C)C)C(=O)N[C@@H](C)C(=O)N[C@@H](C)C(=O)N[C@@H](CCC(N)=O)C(=O)N[C@@H](CC(=O)O)C(=O)N[C@@](C)(Cc1ccccc1)C(=O)N[C@H](C(=O)N[C@@H](CCC(N)=O)C(=O)NC(C)(C)C(=O)N[C@H](C(=O)N[C@@H](C)C(=O)N[C@@H](CC(N)=O)C(N)=O)[C@@H](C)CC)C(C)C)C(=O)O)C(=O)O` [Peptide 88] (H-HSQGS[αMeF]TSDVSK[αMeF]LDSK([PEG2-PEG2-γGlu-γGlu-Heptadecanoyl])AAQD[αMeF]VQ[Aib]IAN-NH2; N-terminus assumed) the EC50 [1] was 1.04 pM, the “% Relative Potency Ratio” value [1] was 12.3 and the EC50 [2] was 6.47 pM.

For `CCCCCCCCCCCCCCCC(=O)N[C@@H](CCC(=O)N[C@@H](CCC(=O)NCCOCCOCCC(=O)NCCOCCOCCC(=O)NCCCC[C@H](NC(=O)[C@H](CO)NC(=O)[C@H](CC(=O)O)NC(=O)[C@H](CC(C)C)NC(=O)[C@](C)(Cc1ccccc1)NC(=O)[C@H](CCCCN)NC(=O)[C@H](CO)NC(=O)[C@@H](NC(=O)[C@H](CC(=O)O)NC(=O)[C@H](CO)NC(=O)[C@@H](NC(=O)[C@](C)(Cc1ccccc1)NC(=O)[C@H](CO)NC(=O)CNC(=O)[C@H](CCC(N)=O)NC(=O)[C@H](CO)NC(=O)[C@@H](N)Cc1c[nH]cn1)[C@@H](C)O)C(C)C)C(=O)N[C@@H](C)C(=O)N[C@@H](C)C(=O)N[C@@H](CCC(N)=O)C(=O)N[C@@H](CC(=O)O)C(=O)N[C@@](C)(Cc1ccccc1)C(=O)N[C@H](C(=O)N[C@@H](CCC(=O)O)C(=O)NC(C)(C)C(=O)N[C@H](C(=O)N[C@@H](C)C(=O)N[C@@H](CC(N)=O)C(N)=O)[C@@H](C)CC)C(C)C)C(=O)O)C(=O)O` [Peptide 90] (H-HSQGS[αMeF]TSDVSK[αMeF]LDSK([PEG2-PEG2-γGlu-γGlu-Palmitoyl])AAQD[αMeF]VE[Aib]IAN-NH2; N-terminus assumed), the EC50 [1] was 1.87 pM, the “% Relative Potency Ratio” value [1] was 7.0 and the EC50 [2] was 6.61 pM.

In the case of `CCCCCCCCCCCCCCCCCC(=O)N[C@@H](CCC(=O)N[C@@H](CCC(=O)NCCOCCOCCC(=O)NCCOCCOCCC(=O)NCCCC[C@H](NC(=O)[C@H](CO)NC(=O)[C@H](CC(=O)O)NC(=O)[C@H](CC(C)C)NC(=O)C(C)(C)NC(=O)[C@H](CCCCN)NC(=O)[C@H](CO)NC(=O)[C@@H](NC(=O)[C@H](CC(=O)O)NC(=O)[C@H](CO)NC(=O)[C@@H](NC(=O)[C@](C)(Cc1ccccc1)NC(=O)[C@H](CO)NC(=O)CNC(=O)[C@H](CCC(N)=O)NC(=O)[C@H](CO)NC(=O)[C@@H](N)Cc1c[nH]cn1)[C@@H](C)O)C(C)C)C(=O)N[C@@H](C)C(=O)N[C@@H](C)C(=O)N[C@@H](CCC(N)=O)C(=O)N[C@@H](CC(=O)O)C(=O)N[C@@](C)(Cc1ccccc1)C(=O)N[C@H](C(=O)N[C@@H](CCC(N)=O)C(=O)NC(C)(C)C(=O)N[C@@H](CC(C)C)C(=O)N[C@@H](CCC(=O)O)C(=O)N[C@@H](C)C(N)=O)C(C)C)C(=O)O)C(=O)O` [Peptide 92] (H-HSQGS[αMeF]TSDVSK[Aib]LDSK([PEG2-PEG2-γGlu-γGlu-Stearoyl])AAQD[αMeF]VQ[Aib]LEA-NH2; N-terminus assumed), the “% Relative Potency Ratio” value [1] is reported as 24.1 and the EC50 [2] is reported as 10.9 pM.
